# Laboratory results: patent publication US10725042B2, “Methods of diagnosing and treating cancer” (Case Western Reserve University, priority 2012, dated 2020)
# Experiments:
# H1975 67 shUNG cells = test: Colony survival assay, H1975 67 shUNG cells; format: cell-based; details: Homo sapiens, NCI-H1975, read-out: pemetrexed IC50
# Protocol: (§1) For cells in suspension, colony survival was determined by crystal violet staining of colonies formed after 10-day exposure of 5×10^3 cells to pemetrexed in soft agar. For adherent cells, colony survival was determined by methylene blue staining of colonies formed after 10-day exposure of 100 cells to pemetrexed in 6-well culture dishes. Only colonies containing ≥50 cells were counted. Data points represent percent of colonies relative to untreated control averaged over 3 experiments.
# (§2) UNG directed shRNA and siRNA plasmids were purchased from Origene. Transfection was carried out according to manufacturer specifications. Stably transfected clones (shRNA) were selected with puromycin with subsequent expansion of a well-isolated colony of cells.
# H1975 66 shUNG cells = test: Colony survival assay, H1975 66 shUNG cells; format: cell-based, human
# Protocol: as §1, §2
# H1299/PR-1 cells = test: Colony survival assay, H1299/PR-1 pemetrexed-resistant subline; format: cell-based, human; details: PR-1 vs H1299 parental, colony survival
# Protocol: as §1
# H1299 cells were exposed to step-wise increasing concentrations of pemetrexed over a period of 4 months. UNG expression was monitored in the bulk population at 2, 8, 12 and 16 weeks prior to administration of the induction dosage and at 24 weeks in a population of bulk chronically exposed cells that had been without pemetrexed for 8 weeks. H1299 cells capable of growth in 50 nM pemetrexed selection pressure were subcloned by limiting dilution in 96 well plates. Independent sublines were designated H1299/PR-1 and H1299/PR-2.
# [1] = treatment of lung cancer; cited from earlier work
# [2] = test system: AP sites in DNA of UDG−/− cells; test: AP site assay (ARP), UDG−/− cells; format: cell-based, human; details: pemetrexed 0-400 nM, 24 hrs
# Protocol: (§3) The number of AP sites was measured using ARP (aldehyde reactive probe) reagent. The assay was performed as previously described. Briefly, cells (2×10^6) were collected after drug treatment and DNA was extracted. DNA (10 μg) was incubated with 15 μl of 1 mM ARP (Dojindo Laboratories, Kumamoto, Japan), and then precipitated and washed with ice-cold ethanol. The ARP-labeled DNA was then heat-denatured at 100° C. for 5 min, quickly chilled on ice and mixed with an equal volume of 2 M ammonium acetate. The DNA was then immobilized on a BA-S 85 nitrocellulose membrane (Schleicher and Schuell, Dassel, Germany) using a minifold II vacuum filter device (Schleicher and Schuell, Dassel, Germany). The membrane was incubated with 0.25% BSA-PBS containing streptavidin-conjugated horseradish peroxidase (BioGenex, SanRamon, Calif.) at room temperature for 40 min with gentle shaking. ARP-labeled AP sites were visualized by chemiluminescence (Amersham Corp, Piscataway, N.J.) followed by quantitative densitometry using NIH Image J software.
# DLD1/UDG+/+ cells = test: Cell cycle analysis, UDG+/+ cells; format: cell-based, human; details: pemetrexed 25 nM
# Protocol: For cell cycle analysis, 10^6 cells (DLD1/UDG^+/+ and DLD1/UDG^−/−) were plated in 100-mm tissue culture dishes and exposed to pemetrexed (25 nM). After 6, 24 and 72 h of culture, cells were fixed with 80% methanol and washed with ice-cold 1% BSA/PBS. DNA was stained with 20 μg/mL propidium iodide (Sigma-Aldrich) and 2.5 μg/mL of DNase-free RNase A (Roche). The DNA fluorescence of propidium iodide-stained cells was measured with an Elite ESP flow cytometer/cell sorter (Coulter, Miami, Fla.).
# UDG+/+ cells = test: Replication foci stained with CldU and IdU, UDG+/+ cells; format: cell-based, human; details: pemetrexed 25 nM, n=10 cells
# Protocol: (§4) DNA replication sites were visualized by incorporation of chlorodeoxyuridine (CldU) and iododeoxyuridine (IdU) into DNA. UDG^−/− and UDG^+/+ cells were labeled with 100 μM CldU (ICN, Irvine, Calif.) or IdU (Sigma Chemical Co., St. Louis, Mo.) for 45 min at different time intervals. Cells were washed with PBS, fixed with cold 70% ethanol, and stored at 4° C. For antibody staining, the ethanol was removed, and 100% methanol was added for 5 min. Cells were washed twice with PBS and incubated with 1.5 M HCl for 30 min to denature the DNA. Cells were washed with PBS, permeabilized with 0.5% Tween 20 in PBS for 5 min, and then incubated in 5% BSA (Sigma Chemical Co.) and in PBS for 20 min to reduce nonspecific binding. Primary antibodies CldU (rat anti-BrdU; Accurate Chemical and Science Co., Westbury, N.Y.) and IdU (mouse anti-BrdU; BD Biosciences) were diluted in 1% BSA buffer, added to the slides, and incubated in a humid environment for 2 hrs. Slides were washed with PBS-Tween 20 and then in a high-salt buffer (200 mM NaCl, 0.2% Tween 20, and 0.2% NP-40 in PBS) for 15 min. The samples were incubated with secondary antibodies for 1 h. Finally, slides were washed with PBSTween 20, mounted with Vectashield antifade mounting medium (Vector Laboratories, Inc., Burlingame, Calif.), and stored at 4° C. […] Fluorescence density of CldU or IdU was quantified by NIH image J software.
# UDG−/− cells = test: Replication foci stained with CldU and IdU, UDG−/− cells; format: cell-based, human; details: pemetrexed 25 nM, n=10 cells
# Protocol: as §4
# H1975 wild type cells = test: PCNA dissociation by bi-parametric flow cytometry, H1975 wild type cells; format: cell-based, human; details: treated samples
# Protocol: Propidium iodine (PI) staining of methanol fixed cells was for cell cycle determinations. Where indicated, FITC labeled PCNA antibody (PCNA-FITC, Abcam) was added for PCNA detection. Uni-parameter (PI-only) and dual-parameter (PI+PCNA-FITC) analysis was performed on a Coulter flow cytometer (EPICS-XL-MCL). Cell cycle histograms (PI) and PCNA dot plots (PCNA-FITC) were de-convoluted from ≥20,000 events using FlowJo software.
# Prolonged S-phase arrest is known to result in DNA DSB formation due to the collapse of stalled replication forks. We evaluated the stability of the DNA replication fork in pemetrexed treated lung cancer cells with native and reduced levels of UNG protein. Nucleotide incorporation experiments using CldU and IdU indicate decreased postpemetrexed treatment nucleotide incorporation (data not shown). […] Using bi-parametric flow cytometry we measured the dissociation of the replication fork processivity factor, PCNA at the single cell level in H1975 cells expressing UNG directed shRNA. Similar assays have been utilized to detect replication fork disassembly following etoposide and hydroxyurea exposure. PCNA dissociation was determined by the percentage of cells in S phase having low PCNA (red box, FIG. 11d). […] As a complimentary experiment, we examined the expression of chromatin-bound PCNA after pemetrexed treatment by western blot of chromatin cellular extracts.
# [3] = test system: AP sites in DNA of UDG+/+ cells; test: AP site assay (ARP), UDG+/+ cells; format: cell-based, human; details: pemetrexed 0-400 nM, 24 hrs
# Protocol: as §3
smiles,measurement,setting,value
Nc1nc2[nH]cc(CCc3ccc(C(=O)N[C@@H](CCC(=O)O)C(=O)O)cc3)c2c(=O)[nH]1 [pemetrexed],IC50,H1975 67 shUNG cells,0.146 µM
same,sensitivity of shRNA targeted H1975 clones compared to parental cells,H1975 66 shUNG cells; H1975 shUNG clones vs parental,> 5 fold
same,IC50,"H1975 66 shUNG cells; Homo sapiens, NCI-H1975, H1975 66 shUNG, colony survival, read-out: pemetrexed IC50",0.131 µM
same,relative resistance to pemetrexed compared to parental cells,H1299/PR-1 cells,25 fold
same,response rate,[1],30-40%
same,AP sites in DNA,[2],lack of detectable AP sites
same,cells transiently arrested in S-phase,DLD1/UDG+/+ cells; 24 hr (untreated 17%),21%
same,cells in the subG1 compartment,DLD1/UDG+/+ cells; 72 hr,6%
same,ratio of IdU to CldU (fluorescence density),UDG+/+ cells; 6-hr sample,0.7±0.13
same,ratio of IdU to CldU (fluorescence density),UDG+/+ cells; 18-hr sample,0.9±0.31
same,ratio of IdU to CldU (fluorescence density),UDG−/− cells; 6-hr sample,0.1±0.04
same,ratio of IdU to CldU (fluorescence density),UDG−/− cells; 18-hr sample,0.01±0.005
same,cells in S phase having low PCNA,H1975 wild type cells,less than 1%
same,AP sites in DNA,[3],dose-dependent formation of AP sites
